Measured values taken from patent US9556201B2, “Bicyclic pyridines and analogs as sirtuin modulators” (GLAXOSMITHKLINE LLC, priority 2009, dated 2017).

Molecular target: T1, SIRT1 (Homo sapiens, UniProt Q96EB6)
T1 sequence (Q96EB6 1-747): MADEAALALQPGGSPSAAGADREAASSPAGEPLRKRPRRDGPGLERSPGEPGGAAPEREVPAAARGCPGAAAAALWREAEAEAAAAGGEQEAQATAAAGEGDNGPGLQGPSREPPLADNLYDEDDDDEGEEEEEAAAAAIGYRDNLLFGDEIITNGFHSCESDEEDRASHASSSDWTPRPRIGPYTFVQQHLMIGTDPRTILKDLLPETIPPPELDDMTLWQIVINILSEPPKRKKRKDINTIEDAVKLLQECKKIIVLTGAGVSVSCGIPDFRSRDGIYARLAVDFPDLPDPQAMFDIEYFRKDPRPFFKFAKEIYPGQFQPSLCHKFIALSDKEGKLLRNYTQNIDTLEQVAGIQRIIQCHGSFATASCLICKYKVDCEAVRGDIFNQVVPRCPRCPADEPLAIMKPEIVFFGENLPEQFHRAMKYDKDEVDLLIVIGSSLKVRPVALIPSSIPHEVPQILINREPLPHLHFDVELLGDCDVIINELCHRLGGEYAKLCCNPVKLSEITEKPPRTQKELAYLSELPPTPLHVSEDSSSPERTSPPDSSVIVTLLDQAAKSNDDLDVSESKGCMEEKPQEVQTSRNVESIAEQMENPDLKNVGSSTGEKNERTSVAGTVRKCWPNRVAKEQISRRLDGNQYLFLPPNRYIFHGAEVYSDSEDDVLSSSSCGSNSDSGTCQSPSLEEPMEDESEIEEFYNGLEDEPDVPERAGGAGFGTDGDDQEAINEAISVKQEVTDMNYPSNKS
Experiment: Mass spectrometry based assay to identify modulators of SIRT1 activity (deacetylation of p53-based acetylated peptide substrate)
Assay type: biochemical
Details: SIRT1 activation; for Emax: 25 min, read-out: % FOLD ACT. (percent maximum fold activation)
From the text: A mass spectrometry based assay was used to identify modulators of SIRT1 activity. The mass spectrometry based assay utilizes a peptide having 20 amino acid residues as follows: Ac-EE-K(biotin)-GQSTSSHSK(Ac)NleSTEG-K(5TMR)-EE-NH2 (SEQ ID NO: 1) wherein K(Ac) is an acetylated lysine residue and Nle is a norleucine. The peptide is labeled with the fluorophore 5TMR (excitation 540 nm/emission 580 nm) at the C-terminus. The sequence of the peptide substrate is based on p53 with several modifications. In addition, the methionine residue naturally present in the sequence was replaced with the norleucine because the methionine may be susceptible to oxidation during synthesis and purification.
The mass spectrometry assay is conducted as follows: […] peptide substrate and 120 μM βNAD^+ is incubated with 10 nM SIRT1 for 25 minutes at 25° C. in a reaction buffer (50 mM Tris-acetate pH 8, 137 mM NaCl, 2.7 mM KCl, 1 mM MgCl2, 5 mM DTT, 0.05% BSA). Test compounds may be added to the reaction as described above. The SirT1 gene is cloned into a T7-promoter containing vector and transformed into BL21(DE3). After the 25 minute incubation with SIRT1, 10 μL of 10% formic acid is added to stop the reaction. Reactions are sealed and frozen for later mass spec analysis. Determination of the mass of the substrate peptide allows for precise determination of the degree of acetylation (i.e. starting material) as compared to deacetylated peptide (product).
A control for inhibition of sirtuin activity is conducted by adding 1 μL of 500 mM nicotinamide as a negative control at the start of the reaction (e.g., permits determination of maximum sirtuin inhibition). A control for activation of sirtuin activity is conducted using 10 nM of sirtuin protein, with 1 μL of DMSO in place of compound, to determine the amount of deacetylation of the substrate at a given timepoint within the linear range of the assay. This timepoint is the same as that used for test compounds and, within the linear range, the endpoint represents a change in velocity.
For the above assay, SIRT1 protein was expressed and purified as follows. The SirT1 gene was cloned into a T7-promoter containing vector and transformed into BL21(DE3). The protein was expressed by induction with 1 mM IPTG as an N-terminal His-tag fusion protein at 18° C. overnight and harvested at 30,000×g. Cells were lysed with lysozyme in lysis buffer (50 mM Tris-HCl, 2 mM Tris[2-carboxyethyl]phosphine (TCEP), 10 μM ZnCl2, 200 mM NaCl) and further treated with sonication for 10 min for complete lysis. The protein was purified over a Ni-NTA column (Amersham) and fractions containing pure protein were pooled, concentrated and run over a sizing column (Sephadex S200 26/60 global). The peak containing soluble protein was collected and run on an Ion-exchange column (MonoQ). Gradient elution (200 mM-500 mM NaCl) yielded pure protein. This protein was concentrated and dialyzed against dialysis buffer (20 mM Tris-HCl, 2 mM TCEP) overnight. The protein was aliquoted and frozen at −80° C. until further use.

Structure (SMILES) | Emax | EC1.5
O=C(Nc1nccs1)N1CCOc2ccc(-c3cccc(C(F)(F)F)c3)nc21 [Compound 500, N-(thiazol-2-yl)-6-(3-(trifluoromethyl)phenyl)-2H-pyrido[3,2-b][1,4]oxazine-4(3H)-carboxamide] | > 200% | A (EC1.5<1.0 μM)
Cc1cnc(CNC(=O)N2CCOc3ccc(-c4cccc(C(F)(F)F)c4)nc32)cn1 [Compound 504] | ≤ 200% | C (EC1.5>25 μM)
O=C(Nc1ncc(CN2CCCC2)s1)N1CCOc2ccc(-c3cccc(C(F)(F)F)c3)nc21 [Compound 505, N-(5-(pyrrolidin-1-ylmethyl)thiazol-2-yl)-6-(3-(trifluoromethyl)phenyl)-2H-pyrido[3,2-b][1,4]oxazine-4(3H)-carboxamide] | ≤ 200% | C (EC1.5>25 μM)
O=C(Nc1ccc(CN2CCOCC2)nc1)N1CCOc2ccc(-c3cccc(C(F)(F)F)c3)nc21 [Compound 507, N-(6-(morpholinomethyl)pyridin-3-yl)-6-(3-(trifluoromethyl)phenyl)-2H-pyrido[3,2-b][1,4]oxazine-4(3H)-carboxamide] | > 200% | A (EC1.5<1.0 μM)
Cc1noc(NC(=O)N2CCOc3ccc(-c4cccc(C(F)(F)F)c4)nc32)c1C [Compound 509] | > 200% | B (EC1.5 1-25 μM)
O=C(Nc1cccc(N2CCC2)n1)N1CCOc2ccc(-c3cccc(C(F)(F)F)c3)nc21 [Compound 512, N-(6-(azetidin-1-yl)pyridin-2-yl)-6-(3-(trifluoromethyl)phenyl)-2H-pyrido[3,2-b][1,4]oxazine-4(3H)-carboxamide] | > 200% | B (EC1.5 1-25 μM)
O=C(Nc1ccncn1)N1CCOc2ccc(-c3cccc(F)c3)nc21 [Compound 514] | > 200% | A (EC1.5<1.0 μM)
COc1cccc(-c2ccc3c(n2)N(C(=O)Nc2ccncn2)CCO3)c1 [Compound 515] | > 200% | B (EC1.5 1-25 μM)
O=C(Nc1ccncn1)N1CCOc2ccc(-c3cccnc3)nc21 [Compound 516] | ≤ 200% | C (EC1.5>25 μM)
Cc1cccc(-c2ccc3c(n2)N(C(=O)Nc2ccncn2)CCO3)c1 [Compound 517] | > 200% | A (EC1.5<1.0 μM)
O=C(c1ccnc(OCC(O)CO)c1)N1CCOc2ccc(-c3cccc(C(F)(F)F)c3)nc21 (stereo not shown) [Compound 518, (2-(2,3-dihydroxypropoxy)pyridin-4-yl)(6-(3-(trifluoromethyl)phenyl)-2H-pyrido[3,2-b][1,4]oxazin-4(3H)-yl)methanone] | ≤ 200% | B (EC1.5 1-25 μM)
CN1C(=O)CN(C(=O)Nc2nccs2)c2nc(-c3cccc(C(F)(F)F)c3)ccc21 [Compound 520, 1-methyl-2-oxo-N-(thiazol-2-yl)-6-(3-(trifluoromethyl)phenyl)-2,3-dihydropyrido[2,3-b]pyrazine-4(1H)-carboxamide] | ≤ 200% | B (EC1.5 1-25 μM)
Cc1csc(NC(=O)N2CC(=O)N(C)c3ccc(-c4cccc(C(F)(F)F)c4)nc32)n1 [Compound 521] | ≤ 200% | B (EC1.5 1-25 μM)
CN1C(=O)CN(C(=O)NC2CCOC2=O)c2nc(-c3cccc(C(F)(F)F)c3)ccc21 (stereo not shown) [Compound 522] | ≤ 200% | C (EC1.5>25 μM)
CN1C(=O)CN(C(=O)Nc2ncco2)c2nc(-c3cccc(C(F)(F)F)c3)ccc21 [Compound 523] | ≤ 200% | C (EC1.5>25 μM)
CN1C(=O)CN(C(=O)Nc2ncn[nH]2)c2nc(-c3cccc(C(F)(F)F)c3)ccc21 [Compound 524] | ≤ 200% | C (EC1.5>25 μM)
CN1C(=O)CN(C(=O)Nc2ccncc2)c2nc(-c3cccc(C(F)(F)F)c3)ccc21 [Compound 525] | > 200% | B (EC1.5 1-25 μM)
CN1C(=O)CN(C(=O)Nc2ccncn2)c2nc(-c3cccc(C(F)(F)F)c3)ccc21 [Compound 526] | > 200% | B (EC1.5 1-25 μM)
CN1C(=O)CN(C(=O)Nc2cncnc2)c2nc(-c3cccc(C(F)(F)F)c3)ccc21 [Compound 527] | ≤ 200% | B (EC1.5 1-25 μM)
CN1C(=O)CN(C(=O)Nc2cccnn2)c2nc(-c3cccc(C(F)(F)F)c3)ccc21 [Compound 528] | ≤ 200% | C (EC1.5>25 μM)
CN1CCN(C(=O)Nc2nccs2)c2nc(-c3cccc(C(F)(F)F)c3)ccc21 [Compound 529, 1-methyl-N-(thiazol-2-yl)-6-(3-(trifluoromethyl)phenyl)-2,3-dihydropyrido[2,3-b]pyrazine-4(1H)-carboxamide] | > 200% | 
Cc1cnc(NC(=O)N2CCN(C)c3ccc(-c4cccc(C(F)(F)F)c4)nc32)s1 [Compound 530] | ≤ 200% | B (EC1.5 1-25 μM)

More lines, now with the values ahead:

Emax | EC1.5 | Structure (SMILES)
> 200% | A (EC1.5<1.0 μM) | CN1CCN(C(=O)Nc2cncnc2)c2nc(-c3cccc(C(F)(F)F)c3)ccc21 [Compound 536]
≤ 200% | C (EC1.5>25 μM) | CN1CCN(C(=O)NC2CCOC2=O)c2nc(-c3cccc(C(F)(F)F)c3)ccc21 (stereo not shown) [Compound 540]
> 200% | A (EC1.5<1.0 μM) | O=C(Nc1ccncc1)N1CCOc2ccc(-c3cccc(Cl)c3)nc21 [Compound 541, 6-(3-chlorophenyl)-N-(pyridin-4-yl)-2H-pyrido[3,2-b][1,4]oxazine-4(3H)-carboxamide]
> 200% | B (EC1.5 1-25 μM) | O=C(Nc1ccncc1)N1CCOc2ccc(-c3cccc(F)c3)nc21 [Compound 542]
> 200% | B (EC1.5 1-25 μM) | O=C(Nc1ccncc1)N1CCOc2ccc(-c3ccccc3F)nc21 [Compound 544]
> 200% | B (EC1.5 1-25 μM) | O=C(Nc1ccncc1)N1CCOc2ccc(-c3ccccc3C(F)(F)F)nc21 [Compound 546]
> 200% | A (EC1.5<1.0 μM) | O=C(Nc1cncc(F)c1)N1CCOc2ccc(-c3cccc(C(F)(F)F)c3)nc21 [Compound 547]
> 200% | B (EC1.5 1-25 μM) | O=C(Nc1ccncc1)N1CCCOc2ccc(-c3cccc(F)c3)nc21 [Compound 550]
> 200% | B (EC1.5 1-25 μM) | Cc1ccc(NC(=O)N2CCOc3ccc(-c4cccc(C(F)(F)F)c4)nc32)c(C)n1 [Compound 552]
≤ 200% | B (EC1.5 1-25 μM) | Cc1cc(C)c(NC(=O)N2CCOc3ccc(-c4cccc(C(F)(F)F)c4)nc32)cn1 [Compound 553]
> 200% | A (EC1.5<1.0 μM) | Cc1ccc(NC(=O)N2CCOc3ccc(-c4cccc(C(F)(F)F)c4)nc32)cn1 [Compound 554]
≤ 200% | B (EC1.5 1-25 μM) | Cc1ncccc1NC(=O)N1CCOc2ccc(-c3cccc(C(F)(F)F)c3)nc21 [Compound 555]
